Test results taken from patent publication US9034901B2, “Pitavastatin calcium and process for its preparation” (Cadila Healthcare Limited, priority 2010, dated 2015).
Where a name gives a salt, the structure may show the parent alone. Read-outs that look alike come from different tables or passages of the source. One block for each compound: values may come before it.

Key:
[1] = cited from earlier work; for purity / water content / total impurities: US '987 A1 Table 1; for total impurities: in % (unit assumed)
[2] = Stability of pitavastatin calcium crystalline form at 40° C./75% RH and 25° C./60% RH (water by KF, related substances); type: physicochemical
Protocol: In general, the stability of pitavastatin calcium crystalline form having water content 5% wt/wt at 40° C./75% RH and 25° C./60% RH is shown in Table-1.

[3] = test system: patients with hypercholesterolaemia; details: cited from earlier work
[4] = kept at 40° C. (air tight), after 90 days
[5] = kept at 40° C. (air tight), initial
[6] = kept in open air, after 90 days
[7] = 1 month, 40° C. ± 2° C., RH 75% ± 5%
[8] = 2 month, 40° C. ± 2° C., RH 75% ± 5%
[9] = 3 month, 25° C. ± 2° C., RH 60% ± 5%
[10] = 3 month, 40° C. ± 2° C., RH 75% ± 5%

Related Substances: 5-oxo [2, 7]: 0.11%
Related Substances: Desflouro [2, 7]: 0.05%
Related Substances: Diastereomer [2, 7]: 0.11%
Related Substances: Total Impurities [2, 7]: 0.28%
Water by KF [2, 7]: 2.9 % w/w
Related Substances: 5-oxo [2, 8]: 0.15%
Related Substances: Desflouro [2, 8]: 0.05%
Related Substances: Diastereomer [2, 8]: 0.11%
Related Substances: Total Impurities [2, 8]: 0.31%
Water by KF [2, 8]: 4.3 % w/w
Related Substances: 5-oxo [2, 9]: 0.12%
Related Substances: Desflouro [2, 9]: 0.05%
Related Substances: Diastereomer [2, 9]: 0.12%
Related Substances: Lactone [2, 9]: 0.07%
Related Substances: Total Impurities [2, 9]: 0.36%
Water by KF [2, 9]: 3.9 % w/w
Related Substances: 5-oxo [2, 10]: 0.14%
Related Substances: Desflouro [2, 10]: 0.05%
Related Substances: Diastereomer [2, 10]: 0.11%
Related Substances: Lactone [2, 10]: 0.09%
Related Substances: Total Impurities [2, 10]: 0.39%
Water by KF [2, 10]: 4.2 % w/w
Related Substances: 5-oxo ([2]; Initial): 0.07%
Related Substances: Desflouro ([2]; Initial): 0.05%
Related Substances: Diastereomer ([2]; Initial): 0.17%
Related Substances: Total Impurities ([2]; Initial): 0.32%
Water by KF ([2]; Initial): 3.0 % w/w
SMILES: O=C(O)C[C@H](O)C[C@H](O)/C=C/c1c(C2CC2)nc2ccccc2c1-c1ccc(F)cc1 [pitavastatin calcium, (3R,5S)-7-[2-cyclopropyl-4-(4-flourophenyl)-quinolin-3-yl]-3,5-dihydroxy-6-(E)-heptenoic acid calcium salt]
purity [1, 4]: 99.64
water content [1, 4]: 7.81%
total impurities [1, 4]: 0.211
purity [1, 5]: 99.38%
water content [1, 5]: about 7.89
total impurities [1, 5]: 0.179
purity [1, 6]: 96.49
water content [1, 6]: 1.77%
total impurities [1, 6]: 2.099
purity ([1]; kept in open air, initial): 99.38%
water content ([1]; kept in open air, initial): about 7.89
total impurities ([1]; kept in open air, initial): 0.179
stability during the storage ([1]; pitavastatin calcium which has become amorphous, reported in US '987 A1): very poor stability
safety and tolerability ([3]; treatment of patients with hypercholesterolaemia): safe and well tolerated

SMILES: O=C(O)C[C@H](O)C[C@H](O)/C=C/c1c(C2CC2)nc2ccccc2c1-c1ccc(F)cc1 [pitavastatin]
potency ([3]; on the basis of reported data, dose-dependent): equivalent to that of atorvastatin
